Results published in US6809096B1, “Phenanthroline-7-one derivatives and their therapeutic uses” (Laboratoire L. Lafon, priority 1999, dated 2004).

Assays:
[1] = test system: HI-MXT tumours; assay: In vivo antitumour activity, hormone-insensitive mouse mammary carcinoma MXT (HI-MXT), tumour growth; details: 5 mg/kg intraperitoneally; for Tumour area (expressed as %): decrease (−) or increase (+) in HI-MXT tumour area vs control on the 21st day after grafting, 6 administrations
Protocol: The tests were carried out on models of:
hormone-insensitive mouse mammary carcinoma MXT (HI-MXT),
The model of mouse mammary adenocarcinoma MXT of Watson C. et al. (Cancer Res., 1977; […]: 3344-48), grafted onto B6D2F1/Jico mice aged from 4 to 6 weeks, is derived from the mammary gland milk ducts. Initially hormone-sensitive (HS-MXT model), the differentiated tumour develops in the direction of an undifferentiated hormone-insensitive tumour (HI-MXT model). […] This is the case, for example, with cyclophosphamide, etoposide or adriamycin.
When the MTD value of a product was determined, its in vivo antitumour activity was characterized at the MTD/2, MTD/4 and MTD/8 doses on the models of mammary adenocarcinoma of mouse origin HS-MXT and of mouse mammary carcinoma HI-MXT and on the model of subcutaneous lymphoma L 1210.
In all the examples presented below, whatever the model, the control condition is represented by a batch of 9 or 15 mice to which is administered, for 3 consecutive weeks and at the rate of 3 administrations (Monday, Wednesday and Friday) per week, a volume of 0.2 ml of physiological saline comprising the solvent used to dissolve the various compounds of formula (I) and (Ia) used.
i)—The tumour growth was evaluated by measuring twice weekly (Monday and Friday) the area of the grafted HS-MXT, HI-MXT or L 1210 tumours. This area is calculated by multiplying the value of the two greatest perpendicular axes of the tumour. The value of these axes is measured using a sliding caliper.
The influence of the two products CRL 8293 and CRL 8294 on the growth of HI-MXT tumours will be presented below by way of example. Each batch of mice grafted with HI-MXT tumours relating to a given experimental condition comprises 15 animals.
The product CRL 8293 is administered intraperitoneally. The first injection of the product is carried out on the seventh day postgrafting (D7) at the rate of 3 injections per week (Monday, Wednesday and Friday) for 3 consecutive weeks and at a dose of 5 mg/kg.
The product CRL 8294 is administered intraperitoneally. The first injection of the product is carried out on the seventh day postgrafting (D7) at the rate of 3 injections per week (Monday, Wednesday and Friday) for 3 consecutive weeks and at a dose of 5 mg/kg.
The decreases (−) or the increases (+) in the area of the HI-MXT tumours induced with treatments 1 and 2 with respect to the control condition on the 21st day after the tumour grafting, i.e. after 6 administrations of the product CRL 8293 or of the product CRL 8294, are shown, as percentage, in the following Table II. 100% of the control animals are still alive on the 21st day postgrafting.

[2] = test system: 12 human cancer cell lines (U-373MG, U-87MG, SW1088, A549, A-427, HCT-15, LoVo, T-47D, MCF7, J82, T24, PC-3); assay: Cytotoxic activity on tumour cell lines in culture (MTT test); format: cell-based; details: mean IC50 calculated from the individual cytotoxic activities on each of the 12 tumour lines, 72 hours incubation
Protocol: 1—Cytotoxic Activity on Tumour Cell Lines in Culture (MTT Test)
The influence of the compounds of formula (I) and of (Ia) on tumour cells was evaluated using the MTT calorimetric test (T. Mosman, J. Immunol. Methods, 1983; 65: 55-63, J. Carmichael et al., Cancer Res. 1987; 47: 936-942).
The principle of the MTT test is based on the mitochondrial reduction by metabolically active alive cells of the yellow-coloured product MTT (3-(4,5-dimethylthiazol-2-yl)-2,5-diphenyltetrazolium bromide) to a blue-coloured product, formazan. The amount of formazan thus obtained is directly proportional to the amount of live cells present in the culture well or wells. This amount of formazan is measured by spectrophotometry.
The cell lines are maintained in monolayer culture at 37° C. in stoppered culture dishes containing 25 MM HEPES MEM (Minimum Essential Medium) base medium. This medium is well suited to the growth of a range of varied diploid or primary mammalian cells. This medium is subsequently supplemented: […]
with an amount of 5% of FCS (Foetal Calf Serum) decomplemented at 56° C. for 1 hour, with 0.6 mg/ml of L-glutamine, with 200 IU/ml of penicillin, with 200 μg/ml of streptomycin, with 0.1 mg/ml of gentamicin.
The 12 human cancer cell lines which were used were obtained from the American Type Culture Collection (ATCC, Rockville, Md., USA). These 12 cell lines are:
U-373MG (ATCC code: HTB-17) and U-87MG (ATCC code: HTB-14), which are two glioblastomas, SW1088 (ATCC code: HTB-12) which is an astrocytoma, A549 (ATCC code: CCL-185) and A-427 (ATCC code: HTB-53), which are two non-small-cell lung cancers, HCT-15 (ATCC code: CCL-225) and LoVo (ATCC code: CCL-229), which are two colorectal cancers, T-47D (ATCC code: HTB-133) and MCF7 (ATCC code: HTB-22), which are two breast cancers, J82 (ATCC code: HTB-1) and T24 (ATCC code: […]), which are two bladder cancers, PC-3 (ATCC code: CRL-1435), which is a prostate cancer.
Experimentally: 100 μl of a cell suspension comprising 20 000 to 50 000 (depending on the cell type used) cells/ml of culture medium are inoculated in flat-bottomed 96-well multi-well plates and are incubated at 37° C. under an atmosphere comprising 5% of CO2 and 70% humidity. After incubating for 24 hours, the culture medium is replaced with 100 μl of fresh medium comprising either the various test compounds at concentrations varying from 10^−5 to 10^−10 M of the solvent used to dissolve the -test products (control condition). After incubating for 72 hours under the above conditions, the culture medium is replaced with 100 μl of a yellowish solution of MTT dissolved, in a proportion of 1 mg/ml, in RPMI 1640. The microplates are reincubated for 3 hours at 37° C. and then centrifuged for 10 minutes at 400 g. The yellowish MTT solution is removed and the blue formazan crystals formed at the cellular level are dissolved in 100 μl of DMSO. The microplates are subsequently agitated for 5 minutes. The intensity of the resulting blue coloration, and thus of the conversion of the yellow MTT product into blue formazan by the cells which are still alive at the end of the experiment, is quantified by spectrophotometry using a device of DYNATECH IMOASSAY SYSTEM type at wavelengths of 570 nm and 630 nm corresponding respectively to the maximum absorption wavelengths of formazan and to the background noise. Software built into the spectrophotometer calculates the mean optical density values and the standard deviation (Std. Dev.) and standard error of the mean (SEM) values.
The inhibitory activity on the cell growth of the compounds of formula (I) and (Ia) on the various tumour cell lines was measured in comparison with that of the natural product.

Which “growth of the HI-MXT tumours (in words)” value [1] does the source give for `O=C1c2cccnc2-c2nccc3ccnc1c23` [CRL 8293, 7H-Pyrido[4,3,2-de][1,10]phenanthroline-7-one] here?
The value was “significant decrease”.

And the “Tumour area (expressed as %)” value [1]?
The value was −33%.

What about the IC50 ([2]; Homo sapiens) of the same compound?
The IC50 was 1250 nM.

With `O=C1c2ncccc2-c2nccc3ccnc1c23` [CRL 8294, 7H-Pyrido[4,3,2-de][1,7phenanthroline-7-one] as the compound, how does the “growth of the HI-MXT tumours (in words)” value [1] read?
Its value is “significant decrease”.

What about the “Tumour area (expressed as %)” value [1] of the same compound?
The value was −36%.

And the IC50 [2]?
Its IC50 is 1450 nM.
